{"source": "patent US9084812B2", "about": "“Composition useful for the prevention or reduction of the progression of prostate cancer” (SIGMA-TAU INDUSTRIE FARMACEUTICHE RIUNITE S.P.A., priority 2008, dated 2015)", "key": {"PC3 cells": {"system": "PC3 cells", "assay": "MTT colorimetric cell proliferation assay, PC3", "assay_type": "cell-based, human", "parameters": "Absorbance 540 nm, single wells (N° 1-8) / Absorbance 540 nm, Mean / PC3 cell proliferation, single wells (N° 1-8) / PC3 cell proliferation, Mean: unit not given here", "conditions": "for Absorbance 540 nm, single wells (N° 1-8): lycopene 5 mmol/L, selenium 30 ng/ml, zinc 10 μg/ml; for % inhib: vs control", "experimental": "(§1) For the experiments reported in the following established human prostate carcinoma cell lines LNCaP and PC3 (obtained from the American Type Culture Collection Rockville, Md.) were used. The LNCaP cells were cultured in RPMI 1640 medium (Life Technologies, Rockville, Md.), supplemented with 10% Fetal Bovine Serum (FBS) and 1% Penicillin and Streptomycin. The cells were incubated at 37 degree C. in a humidified atmosphere of 5% CO2 in air. Both sets of cell cultures were grown to 80% confluence in 10 cm tissue culture flasks and split 1:8. The cells were plated in 96 cell plates and allowed to attach and reach 60-70% confluence before being used for experimentation. […] Cells that were used as control were incubated with same amount of PBS in complete cell medium. The effects of lycopene (5 mmol/L], selenium (30 ng/ml), zinc (10 μg/ml), serenoa (10 μg/ml), and soya isoflavon (10 μg/ml) were also tested by adding them to the cell culture alone or in combination with the green tea extract and pomegranate extract. The cellular proliferation of the cells was determined using the 3-(4,5-dimethylthiazol-2-yl)-2,5-diphenyltetrazolium (MIT) colorimetric assay following 24 hours of incubation at 37° C. with or without the test agents. The MTT ([…]) was added to all the wells and incubated for a further 2 hr. The plate was than centrifuged at 500×g for 5 min at 4 degree C. The MIT solution was removed from the wells by careful aspiration and buffered DMSO (0.1 ml) was added to each of the wells and plates shaken for 15 mins. The absorbance was measured on a microplate reader at the wavelength of 540 nm. The effect of each compound alone and in combination on cell growth was assessed as the percentage of cell viability in which the untreated control cells were taken as those being completely viable and allowed to grow freely."}, "LNCaP cells": {"system": "LNCaP cells", "assay": "MTT colorimetric cell proliferation assay, LNCaP", "assay_type": "cell-based, human", "parameters": "Absorbance 540 nm, single wells (N° 1-10) / Absorbance 540 nm, Mean / LNCaP cell proliferation, Mean: unit not given here", "conditions": "for % inhib: vs control", "experimental": "as §1"}, "[1]": {"conditions": "Table 2, 24 hours incubation, green tea 40 μg/ml, pomegranate 40 μg/ml"}, "[2]": {"conditions": "Table 2, 24 hours incubation, mean of 8 wells"}, "[3]": {"conditions": "Table 1, 24 hours incubation, mean of 10 wells"}}, "note": "Several values for one entry are separate records, joined by “and”; a condition that tells them apart may be missing. Equal values may be shown once."}
{"smiles": "CC(C)=CCC/C(C)=C/C=C/C(C)=C/C=C/C(C)=C/C=C/C=C(C)/C=C/C=C(C)/C=C/C=C(\\C)CCC=C(C)C", "note": "[C, lycopene]", "values": [{"measurement": "Absorbance 540 nm, single wells (N° 1-8)", "setting": "PC3 cells; [1]", "value": "377 and 314 and 322 and 309 and 299 and 316 and 382 and 308"}, {"measurement": "Absorbance 540 nm, Mean", "setting": "PC3 cells; [2]", "value": 328}, {"measurement": "% inhib", "setting": "PC3 cells; Table 2, 24 hours incubation", "value": 11.4, "unit": "%"}, {"measurement": "Absorbance 540 nm, single wells (N° 1-10)", "setting": "LNCaP cells; Table 1, 24 hours incubation, green tea 40 μg/ml, pomegranate 40 μg/ml, lycopene 5 mmol/L, selenium 30 ng/ml, zinc 10 μg/ml", "value": "312 and 317 and 301 and 329 and 315 and 327 and 353 and 341"}, {"measurement": "Absorbance 540 nm, Mean", "setting": "LNCaP cells; [3]", "value": 324}, {"measurement": "% inhib", "setting": "LNCaP cells; Table 1, 24 hours incubation", "value": 6.4, "unit": "%"}]}
{"smiles": "[Se]", "note": "[D, selenium]", "values": [{"measurement": "Absorbance 540 nm, single wells (N° 1-8)", "setting": "PC3 cells; [1]", "value": "309 and 341 and 345 and 286 and 292 and 313 and 321 and 374"}, {"measurement": "Absorbance 540 nm, Mean", "setting": "PC3 cells; [2]", "value": 323}, {"measurement": "% inhib", "setting": "PC3 cells; Table 2, 24 hours incubation", "value": 12.7, "unit": "%"}, {"measurement": "Absorbance 540 nm, Mean", "setting": "LNCaP cells; [3]", "value": 311}, {"measurement": "% inhib", "setting": "LNCaP cells; Table 1, 24 hours incubation", "value": 9.8, "unit": "%"}]}
{"smiles": "[Zn]", "note": "[E, zinc]", "values": [{"measurement": "Absorbance 540 nm, single wells (N° 1-8)", "setting": "PC3 cells; [1]", "value": "355 and 322 and 395 and 344 and 312 and 321 and 339"}, {"measurement": "Absorbance 540 nm, Mean", "setting": "PC3 cells; [2]", "value": 342}, {"measurement": "% inhib", "setting": "PC3 cells; Table 2, 24 hours incubation", "value": 7.8, "unit": "%"}, {"measurement": "Absorbance 540 nm, Mean", "setting": "LNCaP cells; [3]", "value": 325}, {"measurement": "% inhib", "setting": "LNCaP cells; Table 1, 24 hours incubation", "value": 5.7, "unit": "%"}]}
{"smiles": "C[N+](C)(C)C[C@H](O)CC(=O)[O-]", "note": "[H, L-carnitine]", "values": [{"measurement": "PC3 cell proliferation, single wells (N° 1-8)", "setting": "PC3 cells; Table 4, 24 hours incubation, green tea 40 μg/ml, pomegranate 40 μg/ml, serenoa 10 μg/ml, soya isoflavon 10 μg/ml, L-carnitine", "value": "366 and 341 and 387 and 320 and 378 and 392 and 385"}, {"measurement": "PC3 cell proliferation, Mean", "setting": "PC3 cells; Table 4, 24 hours incubation, mean of 8 wells", "value": 369}, {"measurement": "% inhib", "setting": "PC3 cells; Table 4, 24 hours incubation", "value": 2.6, "unit": "%"}, {"measurement": "LNCaP cell proliferation, Mean", "setting": "LNCaP cells; Table 3, 24 hours incubation, mean of 10 wells", "value": 347}, {"measurement": "% inhib", "setting": "LNCaP cells; Table 3, 24 hours incubation", "value": 3.3, "unit": "%"}]}
